Laboratory results: patent US20230113511A1, “USE OF TMAVA ANTAGONIST AND SYSTEM FOR DIAGNOSING FATTY LIVER OR HEART FAILURE” (ProgLead, Inc, priority 2020, published 2023)

Tests used:
mice [1] = test: High-fat diet mice given TMAVA in drinking water for 8 weeks (fatty liver and myocardial hypertrophy); format: in vivo
Text: (§1) Mice in an experimental group were given a high-fat diet and drinking water dissolved with 0.325% (mass/volume %) TMAVA for 8 weeks; and mice in a control group were given a high-fat diet and normal drinking water. After 8 weeks, the mice in the experimental group and the control group were sacrificed and tested.

[2] = target: T1, γ-isopropylbetaine hydroxylase (Bbox) (Homo sapiens, UniProt O75936); test: Binding affinity of Bbox and TMAVA by surface plasmon resonance; settings: read-out: separation rate coefficient constant (binding affinity of Bbox and TMAVA)
T1 sequence (O75936 1-387): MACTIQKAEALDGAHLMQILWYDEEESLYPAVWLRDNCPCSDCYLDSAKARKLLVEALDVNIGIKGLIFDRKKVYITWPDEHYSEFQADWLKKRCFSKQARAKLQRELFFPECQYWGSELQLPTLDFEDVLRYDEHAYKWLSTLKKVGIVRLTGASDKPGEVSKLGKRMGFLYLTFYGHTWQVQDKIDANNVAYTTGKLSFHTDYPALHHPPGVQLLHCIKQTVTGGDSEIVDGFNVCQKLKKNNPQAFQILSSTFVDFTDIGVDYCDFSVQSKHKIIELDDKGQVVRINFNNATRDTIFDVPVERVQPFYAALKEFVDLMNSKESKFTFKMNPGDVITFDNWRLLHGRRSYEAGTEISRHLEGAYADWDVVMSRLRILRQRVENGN

[3] = target: T1, γ-isopropylbetaine hydroxylase (Bbox); test: Bbox immobilized on a graphene surface and contacted with TMAVA; format: binding; settings: in a similar way as γ-BB to Bbox
[4] = target: T2, γ-isopropylbetaine hydroxylase (Bbox) (Mus musculus, UniProt Q924Y0); test: d9 carnitine formation from d9-γ-BB in high-fat diet mice given TMAVA; format: in vivo; settings: 0.325% TMAVA in drinking water and d9-γ-BB, 8 weeks
T2 construct: from tissue; host or cells: whole animal (mice on high-fat diet)
T2 sequence (Q924Y0 1-387): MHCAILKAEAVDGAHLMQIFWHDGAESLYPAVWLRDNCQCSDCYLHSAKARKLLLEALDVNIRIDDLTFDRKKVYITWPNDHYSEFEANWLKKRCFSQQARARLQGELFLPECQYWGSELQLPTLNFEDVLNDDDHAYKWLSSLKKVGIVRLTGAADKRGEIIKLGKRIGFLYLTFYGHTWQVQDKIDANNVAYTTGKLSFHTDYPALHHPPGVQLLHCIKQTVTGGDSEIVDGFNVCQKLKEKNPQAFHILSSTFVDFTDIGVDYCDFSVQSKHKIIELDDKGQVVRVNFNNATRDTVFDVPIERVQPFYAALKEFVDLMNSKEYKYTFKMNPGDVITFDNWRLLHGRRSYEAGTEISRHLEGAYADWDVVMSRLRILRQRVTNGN
Text: Endogenous carnitine synthesis played an important role in physiological dynamic equilibrium. A carnitine precursor (γ-BB) was hydroxylated by y-isopropylbetaine hydroxylase (Bbox) to produce carnitine.
Mice in an experimental group were given a high-fat diet, drinking water dissolved with 0.325% (mass/volume %) TMAVA, and d9-γ-BB; and mice in the control group were given a high-fat diet, normal drinking water, and d9-γ-BB. After 8 weeks, the mice in the experimental group and the control group were sacrificed and tested.

mice [5] = test: Carnitine absorption: d9-carnitine by gavage in TMAVA-treated mice; format: in vivo
mice [6] = test: Lipidolysis in high-fat diet mice given TMAVA in drinking water for 8 weeks; format: in vivo
Text: as §1, with “TMAVA;” for “TMAVA for 8 weeks;”

mice [7] = test: Exogenous carnitine supplementation in TMAVA-induced fatty liver and myocardial hypertrophy in mice; format: in vivo; settings: high-fat diet, 0.325% TMAVA plus 0.325% carnitine in drinking water, 8 weeks
Text: Mice were given a high-fat diet and drinking water containing 0.325% (mass/volume %) TMAVA; at the same time, one group was given TMAVA with 0.325% (mass/volume %) carnitine added to the drinking water (carnitine supplementation group).

intestinal flora = test: Co-incubation of conventionally raised mice feces with TML; settings: different concentrations of TML, sterilized feces had no such effect
mice [8] = test: TML added to the drinking water of mice, urine TMAVA; format: in vivo
Text: The antibiotic-treated mice were then placed in conventional cages with normal (non-sterile) mice to colonize the intestinal flora.

DavA and DavB proteins = target: T3, DavA and DavB proteins (Pseudomonas putida, UniProt Q88QV1); settings: purified DavA and DavB proteins from recombinant Escherichia coli strains
T3 sequence (Q88QV1 1-560): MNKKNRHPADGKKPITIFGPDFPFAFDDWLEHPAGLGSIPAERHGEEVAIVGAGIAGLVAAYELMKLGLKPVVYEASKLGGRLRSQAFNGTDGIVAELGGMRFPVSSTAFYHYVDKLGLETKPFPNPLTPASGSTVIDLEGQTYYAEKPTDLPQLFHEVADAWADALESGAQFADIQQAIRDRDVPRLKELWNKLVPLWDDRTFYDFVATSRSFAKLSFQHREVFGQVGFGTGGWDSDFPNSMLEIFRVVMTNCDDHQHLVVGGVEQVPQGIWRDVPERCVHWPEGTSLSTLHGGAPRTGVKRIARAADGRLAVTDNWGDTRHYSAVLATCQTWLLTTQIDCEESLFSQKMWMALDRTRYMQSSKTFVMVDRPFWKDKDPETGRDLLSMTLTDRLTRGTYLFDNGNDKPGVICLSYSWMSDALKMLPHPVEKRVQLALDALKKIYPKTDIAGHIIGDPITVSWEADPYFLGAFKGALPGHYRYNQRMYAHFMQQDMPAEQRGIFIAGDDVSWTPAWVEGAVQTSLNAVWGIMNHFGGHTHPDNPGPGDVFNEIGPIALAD

mice [9] = test: d9-TML by gavage in mice, plasma d9-TMAVA; format: in vivo
[10] = histological analysis, 0.325% TMAVA

## C[N+](C)(C)CCCCC(=O)[O-] [TMAVA, N,N,N-trimethyl-5-aminovaleric acid]
Mice [1]; 0.325% (mass/volume %) TMAVA in drinking water
  concentration of TMAVA in the plasma and various tissues, increase compared with control group: 10 times
Mice [1]; 0.325% TMAVA in drinking water
  cardiac systolic function: significantly reduced
  concentration of aspartate aminotransferase in the plasma compared with control group: higher
  level of triglyceride in the liver and heart tissues compared with control group: significantly higher
  lipid droplet content in the liver and heart tissues (oil red O) compared with control group: higher
  liver and heart size compared with control group: significantly larger
Mice [1]; fasting state, 0.325% TMAVA in drinking water
  content of triglyceride in the plasma compared with control group: significantly higher
[2]
  Kd: 9.8 µM
[3]
  binding of TMAVA to Bbox on graphene surface: can bind to Bbox
[4]
  level of d9 carnitine compared with control group: significantly lower
Mice [5]
  level of d9-carnitine in the plasma compared with normal mice: significantly lower
Mice [6]; 0.325% TMAVA in drinking water
  level of free fatty acid in the blood compared with control group: higher
  weight of the mice, decrease compared with control group: 30%
Mice [6]; [10]
  percentage of large and medium-sized fat cells in the subcutaneous fat: decreased
  percentage of small fat cells in the subcutaneous fat: increased

## C[N+](C)(C)CC(O)CC(=O)[O-] (centres unmarked) [carnitine]
Mice [7]
  aspartate aminotransferase after carnitine supplementation: 50 U/L
  cardiac systolic function: significantly improved
  content of triglyceride in the liver tissues, decrease: 20%
  level of free fatty acid in the plasma: decreased
  level of triglyceride in the plasma, decrease: 50%
  lipid content in the liver tissues (oil red O): decreased
  weight of the heart: significantly reduced

## C[N+](C)(C)CCCC[C@H](N)C(=O)O [TML, Trimethyllysine]
Intestinal flora
  TMAVA level on co-incubation of feces with TML: increased over time and concentration
Mice [8]
  TMAVA level in urine: increased
DavA and DavB proteins
  TMAVA production in vitro from TML: time-dependently produced

## [2H]C([2H])([2H])[N+](CCCCC(N)C(=O)[O-])(C([2H])([2H])[2H])C([2H])([2H])[2H] (centres unmarked) [d9-TML]
Mice [9]
  plasma level of d9-TMAVA after d9-TML: increase over time
